Patent publication US4740233A, “Substituted 1,2,4-triazolo[1,5-a]-pyrimidine-2-sulfonamides and compositions and methods of controlling undesired vegetation and suppressing the nitrification of ammonium nitrogen in soil” (The Dow Chemical Company, priority 1986, dated 1988)

Tests used:
[1] = system: barnyardgrass; assay: Preemergent control of plant species; assay type: in vivo, Echinochloa crusgalli; details: Echinochloa crus-galli, pre-emergence, 336 h; 0.25 lb/acre; read-out: percent preemergent control
Method in brief: (§1)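 Seeds planted in good agricultural soil beds; active ingredients then applied to the bed surface as aqueous emulsion at listed rates. Beds kept two weeks in greenhouse with watering. Control scored against water-treated beds.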

[2] = system: soybean; assay: Preemergent control of plant species; assay type: in vivo, Glycine max.; details: Glycine max, pre-emergence, 336 h; 0.25 lb/acre; read-out: percent preemergent control
Method in brief: as §1

[3] = system: jimsonweed; assay: Preemergent control of plant species; assay type: in vivo, Datura stramonium; details: Datura stramonium, pre-emergence, 336 h; 0.25 lb/acre; read-out: percent preemergent control
Method in brief: as §1

[4] = system: corn; assay: Preemergent control of plant species; assay type: in vivo, Zea mays; details: Zea mays, pre-emergence, 336 h; 0.25 lb/acre; read-out: percent preemergent control
Method in brief: as §1

[5] = system: annual morning glory; assay: Preemergent control of plant species; assay type: in vivo, Ipomoea spp.; details: Ipomoea, pre-emergence, 336 h; 0.25 lb/acre; read-out: percent preemergent control
Method in brief: as §1

[6] = system: sugar beet; assay: Preemergent control of plant species; assay type: in vivo, Beta saccharifera; details: Beta vulgaris, pre-emergence, 336 h; 0.25 lb/acre; read-out: percent preemergent control
Method in brief: as §1

[7] = system: cotton; assay: Preemergent control of plant species; assay type: in vivo, Gossypium spp.; details: Gossypium hirsutum, pre-emergence, 336 h; 0.25 lb/acre; read-out: percent preemergent control
Method in brief: as §1

[8] = system: yellow foxtail; assay: Preemergent control of plant species; assay type: in vivo, Setaria lutescens; details: Setaria, pre-emergence, 336 h; 0.25 lb/acre; read-out: percent preemergent control
Method in brief: as §1

[9] = system: velvetleaf; assay: Preemergent control of plant species; assay type: in vivo, Abutilon theophrasti; details: Abutilon theophrasti, pre-emergence, 336 h; 0.25 lb/acre; read-out: percent preemergent control
Method in brief: as §1

[10] = system: wild oats; assay: Preemergent control of plant species; assay type: in vivo; details: Avena fatua, pre-emergence, 336 h; 0.25 lb/acre; read-out: percent preemergent control
Procedure: The seeds of various species of plants were planted in beds of good agricultural soil in a greenhouse. A number of compositions of the present invention, generally in the nature of an aqueous emulsion, were applied at rates listed in the table so as to deposit a predetermined amount of active ingredients uniformly throughout the surface of the bed. Another seed bed was treated only with water to serve as a control. After treatment the seed beds were maintained for two weeks under greenhouse conditions conducive for good plant growth and watered as necessary. Control refers to the reduction in growth compared to the observed results of the same untreated species.

[11] = system: sorghum; assay: Preemergent control of plant species; assay type: in vivo, Sorghum vulgare; details: Sorghum, pre-emergence, 336 h; 0.25 lb/acre; read-out: percent preemergent control
Method in brief: as §1

[12] = system: yellow nutsedge; assay: Preemergent control of plant species; assay type: in vivo, Cyperus esculentus; details: Cyperus, pre-emergence, 336 h; 0.25 lb/acre; read-out: percent preemergent control
Method in brief: as §1

[13] = system: nitrification of ammonium nitrogen; assay: Suppression of nitrification of ammonium nitrogen in soil; details: 27° C.
Method in brief: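 Value is % NH4-N remaining after a two-week, 27° C incubation of treated soil held at 1/3 bar tension moisture. Nitrate was measured with an ion-selective electrode after extraction with ammonium sulfate solution and 10 min shaking.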

[14] = system: rice; assay: Preemergent control of plant species; assay type: in vivo, Oryza sativa; details: Oryza sativa, pre-emergence, 336 h; 0.25 lb/acre; read-out: percent preemergent control
Method in brief: as §1

[15] = system: johnson grass; assay: Preemergent control of plant species; assay type: in vivo, Sorghum halepense; details: Sorghum halepense, pre-emergence, 336 h; 0.25 lb/acre; read-out: percent preemergent control
Method in brief: as §1

[16] = system: rape; assay: Preemergent control of plant species; assay type: in vivo, Brassica napus; details: Brassica napus, pre-emergence, 336 h; 0.25 lb/acre; read-out: percent preemergent control
Method in brief: as §1

[17] = system: wheat; assay: Preemergent control of plant species; assay type: in vivo, Triticum aestivum; details: Triticum aestivum, pre-emergence, 336 h; 0.25 lb/acre; read-out: percent preemergent control
Method in brief: as §1

Row | SMILES | pest or weed control at 280.212 g/ha [1] [%] | plant injury at 280.212 g/ha [2] [%] | pest or weed control at 280.212 g/ha [3] [%] | plant injury at 280.212 g/ha [4] [%] | pest or weed control at 280.212 g/ha [5] [%] | plant injury at 280.212 g/ha [6] [%] | plant injury at 280.212 g/ha [7] [%] | pest or weed control at 280.212 g/ha [8] [%] | pest or weed control at 280.212 g/ha [9] [%] | pest or weed control at 280.212 g/ha [10] [%] | plant injury at 280.212 g/ha [11] [%] | pest or weed control at 280.212 g/ha [12] [%] | % NH4-N Remaining After 2 Weeks Incubation ([13]; 0.06 ppm) [%] | % NH4-N Remaining After 2 Weeks Incubation ([13]; 0.25 ppm) [%] | % NH4-N Remaining After 2 Weeks Incubation ([13]; 1 ppm) [%] | % NH4-N Remaining After 2 Weeks Incubation ([13]; 4 ppm) [%] | plant injury at 280.212 g/ha [14] [%] | pest or weed control at 280.212 g/ha [15] [%] | plant injury at 280.212 g/ha [16] [%] | plant injury at 280.212 g/ha [17] [%]
1 | CC(=O)OCc1cccc(Cl)c1NS(=O)(=O)c1nc2nc(C)cc(C)n2n1 [Compound 94, 5,7-dimethyl-N-(2-acetoxymethyl-6-chlorophenyl)-1,2,4-triazolo[1,5-a]pyrimidine-2-sulfonamide] | 0 | 50 | 0 | 0 | 0 | 0 | 60 | 0 | 0 | 0 | 0 | 0 | 28 | 48 | 56 | 84 | 0 | 0 | 100 | –
2 | Cc1cc(C)n2nc(S(=O)(=O)Nc3c(F)cccc3C(=O)OC(C)(C)C)nc2n1 [Compound 56] | 0 | 0 | 0 | 30 | 90 | 100 | 0 | 20 | 50 | 0 | – | 70 | 0 | 37 | 59 | 78 | 0 | 0 | 100 | 0
3 | Cc1ccn2nc(S(=O)(=O)N(C(=O)C3CC3)c3c(F)cccc3F)nc2n1 [Compound 289] | 100 | 50 | 100 | 95 | 100 | 100 | 100 | 100 | 100 | 100 | 100 | 100 | – | – | – | – | – | 100 | 100 | 80
4 | Cc1ccn2nc(S(=O)(=O)N(C(=O)c3ccccc3)c3c(Cl)cccc3Cl)nc2n1 [Compound 274, 5-methyl-N-benzoly-N-(2,6-dichlorophenyl)-1,2,4-triazolo[1,5-a]pyrimidine-2-sulfonamide] | 80 | 0 | 90 | 60 | 80 | 100 | 95 | 95 | 100 | 0 | 90 | 100 | – | – | – | – | 80 | 70 | 100 | 0
5 | Cc1cn2nc(S(=O)(=O)Nc3c(Cl)cccc3Cl)nc2nc1C [Compound 205] | 50 | 90 | 100 | 95 | 75 | 100 | 100 | 0 | 100 | 50 | – | 70 | 32 | 38 | 76 | 81 | 50 | 0 | 100 | 0
6 | Cc1ccn2nc(S(=O)(=O)Nc3c(C)cccc3Cl)nc2n1 [Compound 144] | 80 | 60 | 100 | 70 | 95 | 100 | 100 | 100 | 100 | 70 | – | 100 | 16 | 43 | 63 | 92 | 40 | 100 | 100 | 0
7 | CC(=O)N(c1c(Cl)cccc1Cl)S(=O)(=O)c1nc2nc(C)ccn2n1 [Compound 268] | – | 0 | 100 | 80 | 90 | 100 | 100 | 100 | 100 | 30 | 100 | 100 | 53 | 71 | 80 | 92 | 100 | 80 | 100 | –
8 | Cc1cnc2nc(S(=O)(=O)Nc3c(Cl)cccc3Cl)nn2c1 [Compound 192] | 0 | 90 | 100 | 10 | 97 | 100 | 95 | 70 | 100 | 0 | – | 90 | 21 | 48 | 74 | 86 | 0 | 0 | 100 | 0
9 | Cc1ccnc2nc(S(=O)(=O)Nc3c(F)cccc3F)nn12 [Compound 185] | 20 | 70 | 90 | 0 | 80 | 98 | 98 | – | 100 | 0 | 90 | 0 | – | – | – | – | 20 | 90 | 100 | 0
